We go through 23 compounds from PubChem BioAssay (NCI).

What all share (test): DTP human tumour cell line panel, 48 h
Experiment [1] concerns ACHN renal.
Experiment [2] has as its system BT-549 breast.
The subject of experiment [3] is CAKI-1 renal.
Experiment [4] has as its system CCRF-CEM leukemia.
Experiment [5] relates to HCC-2998 colon.
In experiment [6] the test system is MOLT-4 leukemia.
In experiment [7] the test system is NCI-H23 lung.
Experiment [8] deals with OVCAR-4 ovarian.
Experiment [9] has as its system SN12C renal.
In experiment [10] the test system is SNB-19 CNS.
Experiment [11] deals with SR leukemia.

Where “and” joins values, the source holds several entries; their conditions need not be identical. Equal entries are not always repeated.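 How tested: cells in 96-well plates exposed to compound for 48 hours at five concentrations. GI50: concentration for 50% inhibition of growth. TGI: concentration producing complete growth inhibition.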

A word on the TGI: it is the concentration giving total growth inhibition. Lower therefore signals more potent growth arrest. Broadly, the GI50 is the concentration at which growth is held to half of that of the control.

In the case of `CCC(C#N)N(Cc1cccc(CN(C(C)=O)C(C#N)CC)c1)C(C)=O` (stereo not drawn), the TGI in experiment [1], in [2], in [3], in [4], in experiment [5] and in experiment [6] was more than 100 µM throughout. Besides, the concentration for total growth inhibition (TGI) in [7], in experiment [8], in [9], in experiment [10] and in [11] was more than 100 µM throughout.

On to `OC1(c2ccc(Cl)cc2)c2ccccc2C2=Nc3ccccc3CN21` (stereo not drawn), for which the TGI in [1] is 28.6 µM; in [2] it was more than 100 µM; in experiment [3], more than 100 µM; in [4], more than 100 µM; in experiment [5], more than 100 µM; in [6] it was more than 100 µM. The TGI is more than 100 µM in experiment [7]; 50.6 µM in [8]; more than 79.6 µM in experiment [9]; more than 67.6 µM in experiment [10]; more than 84.8 µM in experiment [11].

As for `CC1CCN(c2nnc(Cl)cc2C(=O)c2ccccc2)CC1`, the TGI was more than 100 µM in experiment [1]; more than 100 µM in [2]; 34 µM in experiment [3]; 45.9 µM in experiment [4]; 96.6 µM in experiment [5]; 55 µM in experiment [6]. The TGI in experiment [7] was 82.4 µM; in experiment [8], more than 100 µM; in experiment [9] it was more than 100 µM; in experiment [10], 92.7 µM; in experiment [11], 45.6 µM.

With `c1ccc(COc2nc3ccc(C45CC6CC(CC(C6)C4)C5)cc3[nH]2)cc1`, the TGI in experiment [1] is more than 100 µM; in experiment [2], more than 100 µM; in experiment [3] it was more than 100 µM; in experiment [4], more than 100 µM; in experiment [5], 56.4 µM; in [6], more than 66.7 µM. In addition, the total growth inhibition concentration (TGI) in experiment [7] was more than 56.6 µM; in [8], more than 100 µM; in experiment [9], more than 100 µM; in experiment [10], more than 100 µM; in [11], more than 100 µM.

As for `CC(C)C[C@H](NC(=O)[C@@H](Cc1cccc2ccccc12)NC(=O)N1CCOCC1)B(O)O`, the TGI in experiment [1] was more than 100 µM; in experiment [2], 18.1 µM; in experiment [3] it was 33.2 µM; in [4], 15.2 µM; in experiment [5], 4.47 µM; in [6], more than 100 µM. The TGI in experiment [7] was 8.94 µM; in experiment [8] it was more than 57.8 µM; in [9] it was 20.4 µM; in [10] it was more than 100 µM; in [11], 19.4 µM.

Consider `CC1(C(O)c2ccccc2)CN(C(C)(C)C)C(=O)/C1=C\Sc1ccccc1` (stereo not drawn), for which the TGI in experiment [1], in experiment [2], in [3], in experiment [4], in [5] and in experiment [6] was more than 100 µM in each case. Also, the TGI in experiment [7], in experiment [8], in experiment [9], in experiment [10] and in experiment [11] was more than 100 µM each time.

On to `CCN(CC)P1(=S)Oc2ccc3ccccc3c2-c2c(ccc3ccccc23)O1`, for which the TGI in experiment [1], in experiment [2], in [3], in experiment [4], in experiment [5] and in experiment [6] was more than 100 µM in each case. For the same compound, the TGI in experiment [7], in [8], in experiment [9], in experiment [10] and in experiment [11] was more than 100 µM in each case.

Regarding `CCOC(=O)c1c(OCC)[nH]c(=O)c(C(c2ccc(F)cc2)c2c(O)c(C(=O)OCC)c(OCC)[nH]c2=O)c1O`, the TGI was 31.7 µM in experiment [1]; 23.6 µM in experiment [2]; 42.4 µM in experiment [3]; more than 100 µM in experiment [4]; 39 µM in experiment [5]; 71 µM in experiment [6]. Also, the TGI in experiment [7] came to 43.6 µM; in experiment [8] it was 48.3 µM; in experiment [9] it was 30.2 µM; in experiment [10], 42.2 µM; in experiment [11], 29 µM.

For the compound `Cc1ccc(S(=O)/C=C(\NC(=O)OCc2ccccc2)C(F)(F)F)cc1` (stereo not drawn), the TGI in experiment [1] is 71 µM; in experiment [2] it was more than 100 µM; in experiment [3], more than 100 µM; in experiment [4] it was 72.4 µM; in experiment [5], more than 100 µM; in [6], more than 100 µM. Also, the TGI in [7], in [8], in experiment [9], in [10] and in [11] was more than 100 µM throughout.

`CC(=O)OCc1ccc(-c2nc(C#N)c(N)o2)o1`: the TGI in experiment [1], in experiment [2], in [3], in experiment [4], in experiment [5] and in experiment [6] was more than 10 µM in each case. The TGI in experiment [7], in experiment [8], in experiment [9], in experiment [10] and in [11] was more than 10 µM in each case.

Consider `CC(=O)OCC1OC(n2c(-c3ccccc3)c(N=Nc3ccc(Cl)cc3)c(C)c(C#N)c2=S)C(OC(C)=O)C(OC(C)=O)C1OC(C)=O` (stereo not drawn), for which the GI50 was 6.95 µM and 34.6 µM in experiment [1]; 5.4 µM and 17.9 µM in experiment [2]; 4.1 µM and 13.7 µM in experiment [4]; 18 µM and > 100 µM in experiment [5]; 2.75 µM and 22.3 µM in [7]; 13.8 µM and 31.8 µM in experiment [8]. Also, the GI50 was 12.2 µM and > 100 µM in experiment [9]; 4.48 µM and 34.1 µM in experiment [10]; 11.5 µM and 34.9 µM in [11]. Besides, the TGI was more than 100 µM in experiment [1]; 20.1 µM and 58.8 µM in experiment [2]; 63.9 µM and > 100 µM in experiment [3]; 54.3 µM and > 100 µM in experiment [4]; 63 µM and > 100 µM in experiment [5]; 21.5 µM and > 100 µM in experiment [6]. The TGI is 14.9 µM and > 100 µM in experiment [7]; more than 100 µM in experiment [8]; more than 100 µM in experiment [9]; 33.3 µM and > 100 µM in experiment [10]; more than 100 µM in [11].

Regarding `C(=N\NC1=NCCCN1)/c1ccc(-c2cn3cc(/C=N/NC4=NCCCN4)ccc3n2)cc1`, the TGI in experiment [1] is more than 100 µM; in experiment [2], more than 100 µM; in experiment [3] it was more than 100 µM; in [4], more than 66.2 µM; in [5] it was more than 100 µM; in experiment [6] it was 11.8 µM. Besides, the TGI in experiment [7] was more than 100 µM; in experiment [8], more than 100 µM; in experiment [9], more than 100 µM; in experiment [10], more than 100 µM; in [11] it was more than 29 µM.

On to `Cc1ccc(Nc2ncnc3sc(SCc4ccccc4)nc23)cc1`, for which the TGI in experiment [1], in [2], in experiment [3], in experiment [4], in experiment [5] and in experiment [6] was more than 100 µM in each case. Moreover, the TGI in experiment [7], in experiment [8], in experiment [9], in experiment [10] and in experiment [11] was more than 100 µM each time.

With `C=C(C)C1CC2=C(C(=O)OC)C=C(O2)C(C(=C)C)[C@@H]2OC(=O)/C(=C\C1O)[C@H]2N(C)C` (stereo partly drawn), the TGI in experiment [1] was 24 µM; in experiment [2], 24.3 µM; in [3], 21.2 µM; in experiment [4], 5.4 µM; in experiment [5], 29 µM; in experiment [6], more than 22.7 µM. Moreover, the TGI in [7] is 28.8 µM; in experiment [8], 21 µM; in [9] it was 28.5 µM; in [10], 50.9 µM; in experiment [11], more than 41.2 µM.

In the case of `CC(C)(C)[Si](C)(C)OCC1OC(n2ccc(=O)[nH]c2=O)C(O[Si](C)(C)C(C)(C)C)/C1=N/O` (stereo not drawn), the TGI in experiment [1] is 12.1 µM; in experiment [2], more than 40.5 µM; in [3] it was 37.9 µM; in experiment [4], 27.3 µM; in [5], 14.8 µM; in experiment [6] it was 6.57 µM. Moreover, the TGI was found to be 14.8 µM in [7]; 17.8 µM in [8]; 16.3 µM in experiment [9]; 18.1 µM in experiment [10]; 7.28 µM in experiment [11].

`S=C1c2cc(Cl)ccc2NC(=NC2CCCC2)C2CSCN12` (stereo not drawn): the total growth inhibition concentration (TGI) in experiment [1], in experiment [2], in experiment [3], in experiment [4], in experiment [5] and in [6] was more than 100 µM each time. Besides, the TGI in experiment [7], in [8], in [9], in experiment [10] and in experiment [11] was more than 100 µM throughout.

For the compound `O=[N+]([O-])c1ccccc1S(=O)(=O)N1CCCc2cc(Cl)ccc21`, the TGI in experiment [1], in experiment [2], in experiment [3], in experiment [4], in [5] and in experiment [6] was more than 100 µM in each case. Moreover, the TGI is more than 100 µM in experiment [7]; more than 100 µM in experiment [8]; more than 100 µM in experiment [9]; more than 100 µM in experiment [10]; more than 79.8 µM in experiment [11].

`C[N+](C)(C)CCCCCc1c2nc(c(CCCCC[N+](C)(C)C)c3ccc([nH]3)c(CCCCC[N+](C)(C)C)c3ccc([nH]3)c(CCCCC[N+](C)(C)C)c3nc1C=C3)C=C2`: the TGI in experiment [1], in experiment [2], in [3], in experiment [4], in experiment [5] and in experiment [6] was more than 100 µM throughout. Further, the TGI in experiment [7], in experiment [8], in [9], in [10] and in [11] was more than 100 µM in each case.

Turning to `CCOC(=O)c1cc(-c2ccc(OC)c(OC)c2)cn1C`, the TGI in [1], in experiment [2], in experiment [3], in experiment [4], in experiment [5] and in experiment [6] was more than 10 µM throughout. Also, the TGI in experiment [7], in [8], in experiment [9], in experiment [10] and in experiment [11] was more than 10 µM in each case.

With `CC1OC(OC2C(CO)OC(O[C@H]3CC[C@@]4(C)C(=CC[C@H]5[C@@H]6C[C@@H]7O[C@](O)(CC[C@@H](C)COC8OC(CO)C(O)C(O)C8O)[C@@H](C)[C@@H]7[C@@]6(C)CC[C@@H]54)C3)C(OC3OC(C)C(O)C(O)C3O)C2O)C(O)C(O)C1O` (stereo partly drawn), the TGI came to 12.2 µM in [1]; 11.1 µM in experiment [2]; 8.61 µM in [3]; 6.38 µM in experiment [4]; 7.28 µM in experiment [5]; 3.71 µM in experiment [6]. For the same compound, the TGI in experiment [7] turned out to be 10.3 µM; in [8] it was 20.8 µM; in experiment [9], 6.95 µM; in experiment [10], 6.39 µM; in experiment [11], 11 µM. The GI50 in experiment [9] is 2.71 µM.

As to `COc1ccc(OC)c2c1C[C@@H]1C(C#N)N3[C@H](Cc4c(OC)ccc(OC)c4[C@@H]3C)C(=O)N1[C@H]2C` (stereo partly drawn), the TGI was found to be 9.53 µM in experiment [1]; 4.09 µM in [2]; 30.3 µM in [3]; 6.75 µM in experiment [4]; 14.4 µM in experiment [5]; 15.9 µM in [6]. For the same compound, the TGI in experiment [7] is 19.6 µM; in experiment [8], 16.4 µM; in experiment [9] it was more than 50.2 µM; in experiment [10] it was 4.96 µM; in [11], 9.12 µM.

For `c1ccc(/C(=N/Nc2cnccn2)c2ncccn2)cc1`, the TGI in experiment [1], in experiment [2], in [3], in experiment [4], in experiment [5] and in experiment [6] was more than 100 µM each time. The TGI in experiment [7], in [8], in experiment [9], in experiment [10] and in experiment [11] was more than 100 µM each time.

As for `Cc1nc2c(=O)[nH]c(=O)nc-2n(CCO)c1C`, the TGI in [1], in experiment [2], in experiment [3], in experiment [4], in experiment [5] and in experiment [6] was more than 100 µM throughout. The TGI in [7], in experiment [8], in experiment [9], in experiment [10] and in [11] was more than 100 µM each time.
